In US6780870B2, “Pyrimidine derivatives as selective inhibitors of COX-2” (SmithKline Beecham Corporation, priority 2000, dated 2004):

Legend:
human COX-1 = molecular target: T1, human COX-1 (Homo sapiens, UniProt P23219); test: Inhibition of PGE2 release in COS cells stably transfected with human COX-1; type: cell-based; conditions: COS cells stably transfected with cDNA for human COX-1; PGE2 release by enzyme immunoassay; 1 hour preincubation; 30 μM arachidonic acid, 15 minutes
T1 construct: expressed in transfected cells
T1 sequence (P23219 24-599): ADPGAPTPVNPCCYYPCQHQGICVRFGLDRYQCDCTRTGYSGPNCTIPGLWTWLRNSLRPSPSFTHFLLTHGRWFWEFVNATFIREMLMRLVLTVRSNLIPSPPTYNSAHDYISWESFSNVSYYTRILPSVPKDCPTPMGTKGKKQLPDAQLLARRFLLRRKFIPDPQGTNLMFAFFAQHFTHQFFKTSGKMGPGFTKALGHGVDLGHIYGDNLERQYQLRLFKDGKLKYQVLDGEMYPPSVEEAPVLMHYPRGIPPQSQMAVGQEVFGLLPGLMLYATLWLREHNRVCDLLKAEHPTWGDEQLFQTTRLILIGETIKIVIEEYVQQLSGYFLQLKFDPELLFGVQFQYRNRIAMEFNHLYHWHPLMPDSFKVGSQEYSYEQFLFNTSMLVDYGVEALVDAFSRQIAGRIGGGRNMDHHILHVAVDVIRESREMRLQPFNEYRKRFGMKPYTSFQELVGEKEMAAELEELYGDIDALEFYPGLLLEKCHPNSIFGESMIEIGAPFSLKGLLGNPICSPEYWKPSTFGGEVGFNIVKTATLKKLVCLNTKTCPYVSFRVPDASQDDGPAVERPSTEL
Procedure: (§1) Inhibitory activity against human COX-1 and COX-2 was assessed in COS cells which had been stably transfected with cDNA for human COX-1 and human COX-2. 24 Hours prior to experiment, COS cells were transferred from the 175 cm^2 flasks in which they were grown, onto 24-well cell culture plates using the following procedure. The incubation medium (Dulbecco's modified eagles medium (DMEM) supplemented with heat-inactivated foetal calf serum (10% v/v), penicillin (100 IU/ml), streptomycin (100 μg/ml) and geneticin (600 μg/ml)) was removed from a flask of confluent cells (1 flask at confluency contains approximately 1×10^7 cells). 10 ml of phosphate buffered saline (PBS) was added to the flask to wash the cells. Having discarded the PBS, cells were then rinsed in 10 ml trypsin for 20 seconds, after which the trypsin was removed and the flask placed in an incubator (37°) for 1-2 minutes until cells became detached from the flask. The flask was then removed from the incubator and cells resuspended in 10 ml of fresh incubation medium. The contents of the flask was transferred to a 250 ml sterile container and the volume of incubation medium subsequently made up to 100 ml. 1 ml cell suspension was pipetted into each well of 4×24-well cell culture plates. The plates were then placed in an incubator (37° C., 95% air/5% CO2) overnight. If more than 1 flask of cells were required, the cells from the individual flasks were combined before being dispensed into the 24-well plates.
(§2) Following the overnight incubation, the incubation medium was completely removed from the 24-well cell culture plates and replaced with 250 μl fresh DMEM (37° C.). The test compounds were made up to 250× the required test concentration in DMSO and were added to the wells in a volume of 1 μl. Plates were then mixed gently by swirling and then placed in an incubator for 1 hour (37° C., 95% air/5% CO2). […] Plates were then incubated for a further 15 minutes, after which the incubation medium was removed from each well of the plates and stored at −20° C., prior to determination of prostaglandin E2 (PGE2) levels using enzyme immunoassay. […] The selectivity ratio of inhibition of COX-1 versus COX-2 was calculated by comparing respective IC50 values.

human COX-2 = molecular target: T2, human COX-2 (Homo sapiens, UniProt P35354); test: Inhibition of PGE2 release in COS cells stably transfected with human COX-2; type: cell-based; conditions: COS cells stably transfected with cDNA for human COX-2; PGE2 release by enzyme immunoassay; 1 hour preincubation; 30 μM arachidonic acid, 15 minutes
T2 construct: expressed in transfected cells
T2 sequence (P35354 18-604): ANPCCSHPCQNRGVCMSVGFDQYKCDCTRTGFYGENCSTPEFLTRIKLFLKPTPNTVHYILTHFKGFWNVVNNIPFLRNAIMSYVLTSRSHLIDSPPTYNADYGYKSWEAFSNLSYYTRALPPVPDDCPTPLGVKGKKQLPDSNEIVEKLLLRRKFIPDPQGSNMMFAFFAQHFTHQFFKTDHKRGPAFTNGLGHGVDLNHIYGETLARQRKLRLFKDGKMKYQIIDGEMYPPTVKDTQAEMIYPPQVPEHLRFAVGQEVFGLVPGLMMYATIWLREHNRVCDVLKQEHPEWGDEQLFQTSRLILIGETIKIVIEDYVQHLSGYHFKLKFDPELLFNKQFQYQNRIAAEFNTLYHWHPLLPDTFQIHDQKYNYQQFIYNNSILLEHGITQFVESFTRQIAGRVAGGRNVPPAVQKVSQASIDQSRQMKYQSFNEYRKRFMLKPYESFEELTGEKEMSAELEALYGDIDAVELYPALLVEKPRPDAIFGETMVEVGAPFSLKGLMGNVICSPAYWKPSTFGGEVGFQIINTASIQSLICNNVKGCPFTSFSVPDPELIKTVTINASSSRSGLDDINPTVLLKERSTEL
Procedure: as §1, §2

CS(=O)(=O)c1ccc(-c2cc(C(F)(F)F)nc(NCc3ccncc3)n2)cc1 [Example 1, 4-[4-(Methylsulfonyl)phenyl]-N-(pyridin-4-ylmethyl)-6-(trifluoromethyl)pyrimidin-2-amine]
IC50 (human COX-1): > 100000 nM
IC50 (human COX-2): 1.3 nM

CS(=O)(=O)c1ccc(-c2cc(C(F)(F)F)nc(NCc3cccnc3)n2)cc1 [Example 2, 4-[4-(Methylsulfonyl)phenyl]-N-(pyridin-3-ylmethyl)-6-(trifluoromethyl)pyrimidin-2-amine]
IC50 (human COX-1): > 100000 nM
IC50 (human COX-2): 10.8 nM

CS(=O)(=O)c1ccc(-c2cc(C(F)(F)F)nc(NCc3ccccn3)n2)cc1 [Example 3, 4-[4-(Methylsulfonyl)phenyl]-N-(pyridin-2-ylmethyl)-6-(trifluoromethyl)pyrimidin-2-amine]
IC50 (human COX-1): > 100000 nM
IC50 (human COX-2): 2.5 nM

CS(=O)(=O)c1ccc(-c2cc(C(F)(F)F)nc(NCc3ccccc3)n2)cc1 [Example 4, 4-[4-(Methylsulfonyl)phenyl]-N-(phenylmethyl)-6-(trifluoromethyl)-2-pyrimidinamine]
IC50 (human COX-1): > 100000 nM
IC50 (human COX-2): 0.25 nM

COc1ccc(CNc2nc(-c3ccc(S(C)(=O)=O)cc3)cc(C(F)(F)F)n2)cc1 [Example 9, N-(4-methoxybenzyl)-4-[4-(methylsulfonyl)phenyl]-6-(trifluoromethyl)pyrimidin-2-amine]
IC50 (human COX-1): > 100000 nM
IC50 (human COX-2): 34 nM
